One experiment addresses T1, human PDE5 (Homo sapiens, UniProt O76074).
T1 construct: from tissue; host or cells: human platelets from fresh donor blood (platelet lysate)
Put plainly: Inhibition of PDE5 activity (platelet lysate, SPA assay). The settings on record: 0.5 μM cGMP, read-out: PDE5 Inhibitory values measured as -logIC50 (converted). The class given is biochemical. Put shortly:
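SPA readout of [3H]cGMP hydrolysis (0.5 μM, 15 min, 37 °C after 5 min preincubation), stopped with yttrium silicate beads containing IBMX. Enzyme was lysate from human platelets, used at 10–20% substrate turnover, with PDE3 (motapizone 1 μM) and PDE2 (10 nM) blockers present. IC50 values fitted non-linearly from concentration-effect curves.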

For the next experiment, the target named is T2, PDE4B1 (Homo sapiens, UniProt Q07343).
T2 construct: made in house; host or cells: SF21 insect cells (baculovirus; virus made in SF9 cells, pCR-Bac vector)
T2 sequence (Q07343 whole entry): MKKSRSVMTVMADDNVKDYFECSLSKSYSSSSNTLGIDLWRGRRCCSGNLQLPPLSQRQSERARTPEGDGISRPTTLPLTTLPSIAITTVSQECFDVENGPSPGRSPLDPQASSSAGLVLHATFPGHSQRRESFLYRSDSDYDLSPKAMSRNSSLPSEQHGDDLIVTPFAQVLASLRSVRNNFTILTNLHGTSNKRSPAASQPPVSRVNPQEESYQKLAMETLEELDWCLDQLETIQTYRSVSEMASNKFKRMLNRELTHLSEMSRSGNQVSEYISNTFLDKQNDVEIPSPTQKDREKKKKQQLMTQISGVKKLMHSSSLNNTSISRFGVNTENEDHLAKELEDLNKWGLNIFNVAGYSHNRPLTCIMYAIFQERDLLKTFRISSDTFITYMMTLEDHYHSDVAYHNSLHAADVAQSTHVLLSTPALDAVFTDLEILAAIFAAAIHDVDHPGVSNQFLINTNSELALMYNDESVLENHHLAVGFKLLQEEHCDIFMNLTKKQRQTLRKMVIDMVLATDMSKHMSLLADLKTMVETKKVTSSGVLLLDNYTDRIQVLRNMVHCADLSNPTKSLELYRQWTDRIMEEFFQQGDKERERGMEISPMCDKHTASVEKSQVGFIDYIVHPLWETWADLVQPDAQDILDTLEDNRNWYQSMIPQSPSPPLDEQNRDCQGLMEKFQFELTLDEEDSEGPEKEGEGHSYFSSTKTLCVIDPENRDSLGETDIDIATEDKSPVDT
Put plainly: Inhibition of PDE4 activity (PDE4B1, SPA assay). It is filed as biochemical. The settings on record: recombinant PDE4B1, 0.5 μM cAMP; read-out: PDE4B1 Inhibitory values measured as -logIC50 (converted). The essentials:
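Read-out is SPA yttrium silicate bead scintillation after IBMX-containing beads stop the reaction. Insect-cell (SF21) lysate enzyme hydrolysed 0.5 μM [3H]cAMP at pH 7.4 with 5 mM Mg2+ for 15 min after a 5 min 37 °C preincubation; IC50 fitted by non-linear regression.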

Where only a bound is given, the exact number is not on record here.

For the compound `COc1ccc(C2=NN(C3CCN(C(=O)[C@@H](Cc4ccc(-c5ccccc5)cc4)NC(=O)c4c[nH]c5c(-c6c(OCC7CC7)ccc7c6OCO7)ncnc45)CC3)C(=O)[C@@H]3CCCC[C@H]23)cc1OC` [Example 13, N-[(2R)-3-(biphenyl-4-yl)-1-{4-[(4aS,8aR)-4-(3,4-dimethoxyphenyl)-1-oxo-4a,5,6,7,8,8a-hexahydrophthalazin-2(1H)-yl]piperidin-1-yl}-1-oxopropan-2-yl]-4-[5-(cyclopropylmethoxy)-1,3-benzodioxol-4-yl]-5H-pyrrolo[3,2-d]pyrimidine-7-carboxamide], the figures for the IC50 on human PDE5 and at PDE4B1 were 1 to 10 nM and less than 1 nM, respectively.
The matching figures for `COc1ccc(C2=NN(C3CCN(C(=O)[C@H](Cc4ccncc4)NC(=O)c4c(C)[nH]c5c(-c6c(OCC7CC7)ccc7c6OCO7)ncnc45)CC3)C(=O)[C@@H]3CCCC[C@H]23)cc1OC` [Example 40, 4-[5-(cyclopropylmethoxy)-1,3-benzodioxol-4-yl]-N-[(2S)-1-{4-[(4aS,8aR)-4-(3,4-dimethoxyphenyl)-1-oxo-4a,5,6,7,8,8a-hexahydrophthalazin-2(1H)-yl]piperidin-1-yl}-1-oxo-3-(pyridin-4-yl)propan-2-yl]-6-methyl-5H-pyrrolo[3,2-d]pyrimidine-7-carboxamide]: less than 1 nM and 1 to 10 nM.
The matching figures for `COc1ccc(C2=NN(C3CCN(C(=O)[C@@H](Cc4ccc(N5CCCC5=O)cc4)NC(=O)c4c[nH]c5c(-c6c(OCC7CC7)ccc7c6OCO7)ncnc45)CC3)C(=O)[C@@H]3CCCC[C@H]23)cc1OC` [Example 113, 4-[5-(cyclopropylmethoxy)-1,3-benzodioxol-4-yl]-N-{(2R)-1-{4-[(4aS,8aR)-4-(3,4-dimethoxyphenyl)-1-oxo-4a,5,6,7,8,8a-hexahydrophthalazin-2(1H)-yl]piperidin-1-yl}-1-oxo-3-[4-(2-oxopyrrolidin-1-yl)phenyl]propan-2-yl}-5H-pyrrolo[3,2-d]pyrimidine-7-carboxamide]: less than 1 nM and less than 1 nM.
The matching figures for `COc1ccc(C2=NN(C3CCN(C(=O)[C@H](NC(=O)c4c[nH]c5c(-c6c(OCC7CC7)ccc7c6OCO7)ncnc45)C(C)C)CC3)C(=O)[C@@H]3CCCC[C@H]23)cc1OC` [Example 119, 4-[5-(cyclopropylmethoxy)-1,3-benzodioxol-4-yl]-N-[(2R)-1-{4-[(4aS,8aR)-4-(3,4-dimethoxyphenyl)-1-oxo-4a,5,6,7,8,8a-hexahydrophthalazin-2(1H)-yl]piperidin-1-yl}-3-methyl-1-oxobutan-2-yl]-5H-pyrrolo[3,2-d]pyrimidine-7-carboxamide]: less than 1 nM and less than 1 nM.
Take `COc1ccc(C2=NN(C3CCN(C(=O)[C@H](NC(=O)c4c(C)[nH]c5c(-c6c(OCC7CC7)ccc7c6OCO7)ncnc45)[C@H](C)c4ccccc4)CC3)C(=O)[C@@H]3CCCC[C@H]23)cc1OC` [Example 51, 4-[5-(cyclopropylmethoxy)-1,3-benzodioxol-4-yl]-N-[(2R,3R)-1-{4-[(4aS,8aR)-4-(3,4-dimethoxyphenyl)-1-oxo-4a,5,6,7,8,8a-hexahydrophthalazin-2(1H)-yl]piperidin-1-yl}-1-oxo-3-phenylbutan-2-yl]-6-methyl-5H-pyrrolo[3,2-d]pyrimidine-7-carboxamide]: the IC50 on human PDE5 was 1 to 10 nM; on PDE4B1, less than 1 nM.
In the same order, the values of `COc1ccc(C2=NN(C3CCN(C(=O)[C@@H](Cc4ccc(C(N)=O)cc4)NC(=O)c4c(C)[nH]c5c(-c6c(OCC7CC7)ccc7c6OCO7)ncnc45)CC3)C(=O)[C@@H]3CCCC[C@H]23)cc1OC` [Example 11, N-[(2R)-3-(4-carbamoylphenyl)-1-{4-[(4aS,8aR)-4-(3,4-dimethoxyphenyl)-1-oxo-4a,5,6,7,8,8a-hexahydrophthalazin-2(1H)-yl]piperidin-1-yl}-1-oxopropan-2-yl]-4-[5-(cyclopropylmethoxy)-1,3-benzodioxol-4-yl]-6-methyl-5H-pyrrolo[3,2-d]pyrimidine-7-carboxamide] are 1 to 10 nM and less than 1 nM.
The matching figures for `COc1ccc(C[C@H](NC(=O)c2c[nH]c3c(-c4c(OCC5CC5)ccc5c4OCO5)ncnc23)C(=O)N2CCC(N3N=C(c4ccc(OC)c(OC)c4)[C@H]4CCCC[C@H]4C3=O)CC2)cc1OC` [Example 25, 4-[5-(cyclopropylmethoxy)-1,3-benzodioxol-4-yl]-N-[(2S)-3-(3,4-dimethoxyphenyl)-1-{4-[(4aS,8aR)-4-(3,4-dimethoxyphenyl)-1-oxo-4a,5,6,7,8,8a-hexahydrophthalazin-2(1H)-yl]piperidin-1-yl}-1-oxopropan-2-yl]-5H-pyrrolo[3,2-d]pyrimidine-7-carboxamide]: 1 to 10 nM and 1 to 10 nM.
As to `COc1ccc(C2=NN(C3CCN(C(=O)[C@H](NC(=O)c4c[nH]c5c(-c6c(OCC7CC7)ccc7c6OCO7)ncnc45)C(C)(C)C)CC3)C(=O)[C@@H]3CCCC[C@H]23)cc1OC` [Example 121, 4-[5-(cyclopropylmethoxy)-1,3-benzodioxol-4-yl]-N-[(2R)-1-{4-[(4aS,8aR)-4-(3,4-dimethoxyphenyl)-1-oxo-4a,5,6,7,8,8a-hexahydrophthalazin-2(1H)-yl]piperidin-1-yl}-3,3-dimethyl-1-oxobutan-2-yl]-5H-pyrrolo[3,2-d]pyrimidine-7-carboxamide], the IC50 on human PDE5 and at PDE4B1 was 1 to 10 nM in each case.
For `COc1ccc(C2=NN(C3CCN(C(=O)[C@@H](Cc4ccccc4)NC(=O)c4c(C)[nH]c5c(-c6c(OCC7CC7)ccc7c6OCO7)ncnc45)CC3)C(=O)[C@@H]3CCCC[C@H]23)cc1OC` [Example 26, 4-[5-(cyclopropylmethoxy)-1,3-benzodioxol-4-yl]-N-[(2R)-1-{4-[(4aS,8aR)-4-(3,4-dimethoxyphenyl)-1-oxo-4a,5,6,7,8,8a-hexahydrophthalazin-2(1H)-yl]piperidin-1-yl}-1-oxo-3-phenylpropan-2-yl]-6-methyl-5H-pyrrolo[3,2-d]pyrimidine-7-carboxamide], the IC50 on human PDE5 is less than 1 nM; on PDE4B1, 1 to 10 nM.
As to `COc1cc(OCC2CC2)c(-c2ncnc3c(C(=O)N[C@@H](CCC(=O)N4CCCCC4)C(=O)N4CCC(N5N=C(c6ccc(OC)c(OC)c6)[C@H]6CCCC[C@H]6C5=O)CC4)c(C)[nH]c23)cc1F` [Example 84, 4-[2-(cyclopropylmethoxy)-5-fluoro-4-methoxyphenyl]-N-[(2S)-1-{4-[(4aS,8aR)-4-(3,4-dimethoxyphenyl)-1-oxo-4a,5,6,7,8,8a-hexahydrophthalazin-2(1H)-yl]piperidin-1-yl}-1,5-dioxo-5-(piperidin-1-yl)pentan-2-yl]-6-methyl-5H-pyrrolo[3,2-d]pyrimidine-7-carboxamide], the IC50 at human PDE5 is less than 1 nM; on PDE4B1, 1 to 10 nM.
Take `COc1ccc(C2=NN(C3CCN(C(=O)[C@@H](CCC(=O)N(C)C)NC(=O)c4c(C)[nH]c5c(-c6c(OCC7CC7)ccc7c6OCO7)ncnc45)CC3)C(=O)C(C)(C)C2)cc1OC` [Example 118, 4-[5-(cyclopropylmethoxy)-1,3-benzodioxol-4-yl]-N-[(2R)-1-{4-[3-(3,4-dimethoxyphenyl)-5,5-dimethyl-6-oxo-5,6-dihydropyridazin-1(4H)-yl]piperidin-1-yl}-5-(dimethylamino)-1,5-dioxopentan-2-yl]-6-methyl-5H-pyrrolo[3,2-d]pyrimidine-7-carboxamide]: the results for the IC50 on human PDE5 and at PDE4B1 were less than 1 nM and 1 to 10 nM, respectively.
In the same order, the values of `CCOc1ccc(C[C@@H](NC(=O)c2c[nH]c3c(-c4c(OCC5CC5)ccc5c4OCO5)ncnc23)C(=O)N2CCC(N3N=C(c4ccc(OC)c(OC)c4)[C@H]4CCCC[C@H]4C3=O)CC2)cc1` [Example 9, 4-[5-(cyclopropylmethoxy)-1,3-benzodioxol-4-yl]-N-[(2R)-1-{4-[(4aS,8aR)-4-(3,4-dimethoxyphenyl)-1-oxo-4a,5,6,7,8,8a-hexahydrophthalazin-2(1H)-yl]piperidin-1-yl}-3-(4-ethoxyphenyl)-1-oxopropan-2-yl]-5H-pyrrolo[3,2-d]pyrimidine-7-carboxamide] are less than 1 nM and less than 1 nM.
Regarding `COc1ccc(C2=NN(C3CCN(C(=O)[C@@H](Cc4ccc(C(C)(C)C)cc4)NC(=O)c4c[nH]c5c(-c6c(OCC7CC7)ccc7c6OCO7)ncnc45)CC3)C(=O)[C@@H]3CCCC[C@H]23)cc1OC` [Example 6, N-[(2R)-3-(4-tert-butylphenyl)-1-{4-[(4aS,8aR)-4-(3,4-dimethoxyphenyl)-1-oxo-4a,5,6,7,8,8a-hexahydrophthalazin-2(1H)-yl]piperidin-1-yl}-1-oxopropan-2-yl]-4-[5-(cyclopropylmethoxy)-1,3-benzodioxol-4-yl]-5H-pyrrolo[3,2-d]pyrimidine-7-carboxamide], the IC50 on human PDE5 and on PDE4B1 was 1 to 10 nM in each case.
`COc1ccc(C2=NN(C3CCN(C(=O)[C@@H](Cc4ccccc4)NC(=O)c4c(C)[nH]c5c(-c6c(OCC7CC7)ccc7c6OCO7)ncnc45)CC3)C(=O)C3(CCCC3)C2)cc1OC` [Example 124, 4-[5-(cyclopropylmethoxy)-1,3-benzodioxol-4-yl]-N-[(2R)-1-{4-[9-(3,4-dimethoxyphenyl)-6-oxo-7,8-diazaspiro[4.5]dec-8-en-7-yl]piperidin-1-yl}-1-oxo-3-phenylpropan-2-yl]-6-methyl-5H-pyrrolo[3,2-d]pyrimidine-7-carboxamide]: the IC50 on human PDE5 and on PDE4B1 was 1 to 10 nM in each case.

Values taken from patent US20160108049A1 (TAKEDA Gmbh, priority 2011, published 2016).
